target: T1, TAAR1 receptor (UniProt Q96RJ0); test: TAAR1 Agonist cAMP Assay; assay type: cell-based, human or mouse; settings: CHO-K1 cells expressing TAAR1; cAMP HTRF; 30 minutes at room temperature
T1 sequence (Q96RJ0 1-339): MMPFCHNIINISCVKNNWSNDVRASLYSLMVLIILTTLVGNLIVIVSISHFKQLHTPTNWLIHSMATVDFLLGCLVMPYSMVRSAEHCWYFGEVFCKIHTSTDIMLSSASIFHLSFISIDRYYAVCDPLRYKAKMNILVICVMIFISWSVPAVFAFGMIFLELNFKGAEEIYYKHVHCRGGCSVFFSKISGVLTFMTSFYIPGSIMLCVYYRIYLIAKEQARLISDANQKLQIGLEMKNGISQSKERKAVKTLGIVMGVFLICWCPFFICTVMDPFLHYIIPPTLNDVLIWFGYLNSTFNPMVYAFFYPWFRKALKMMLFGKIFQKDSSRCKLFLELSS
Description: CHO-K1 cells expressing the human TAAR1 receptor (Accession number NP_612200.1) or mouse TAAR1 receptor (Accession number NP_444435.1) were grown in media (Advanced DMEM supplemented with 1% dialyzed fetal bovine serum) without antibiotics. The cells were detached by gentle flushing with phosphate buffered saline containing 5 mM EDTA, recovered by centrifugation and resuspended in assay buffer (Krebs-Ringers Henseleit buffer: 5 mM KCl, 1.25 mM MgSO4, 124 mM NaCl, 25 mM HEPES, 13.3 mM Glucose, 1.25 mM KH2PO4, 1.45 mM CaCl2, 0.5 g/L BSA, supplemented with 1 mM isobutylmethylxanthine). Testing was performed in 384-well plates. 5 μl of cells (3000 cells) were mixed with 5 μl of the test compound diluted in assay buffer and then incubated for 30 minutes at room temperature. cAMP levels were determined using the Cisbio cAMP Gs dynamic HTRF kit (Cisbio, Bedford, MA). The results of the testing are shown in Table 3, with EC50 ranges designated as follows: • A=0.1 μM to 1 μM • B=0.01 μM to <0.1 μM • C=0.001 μM to <0.01 μM • D=0.0001 μM to <0.001 μM

EC50 [nM] | SMILES
1 to 10 | CNCC1CCOc2c(-c3cnccc3C)cccc21 (stereo in doubt) [Compound 6, (R)—N-methyl-1-(8-(4-methylpyridin-3-yl)chroman-4-yl)methanamine]
1 to 10 | Cc1ccncc1-c1cccc2c1OCC[C@H]2CN [Compound 5, (R)-(8-(4-methylpyridin-3-yl)chroman-4-yl)methanamine]
10 to 100 | NC[C@@H]1CCOc2c(-c3ccc(C(F)(F)F)nc3)cccc21 [Compound 7, 1-[(4R)-8-[6-(trifluoromethyl)pyridin-3-yl]-3,4-dihydro-2H-1-benzopyran-4-yl]methanamine]
10 to 100 | CNC[C@@H]1CCOc2c(-c3ccc(C(F)(F)F)nc3)cccc21 [Compound 8, methyl({[(4R)-8-[6-(trifluoromethyl)pyridin-3-yl]-3,4-dihydro-2H-1-benzopyran-4-yl]methyl})amine]
0.1 to 1 | NC[C@@H]1CCOc2c(-c3ccnc(C(F)(F)F)c3)cccc21 [Compound 9, 1-[(4R)-8-[2-(trifluoromethyl)pyridin-4-yl]-3,4-dihydro-2H-1-benzopyran-4-yl]methanamine]
1 to 10 | CNC[C@@H]1CCOc2c(-c3ccnc(C(F)(F)F)c3)cccc21 [Compound 10]
1 to 10 | COc1cnccc1-c1cccc2c1OCC[C@H]2CN [Compound 11, [(4R)-8-(3-methoxypyridin-4-yl)-3,4-dihydro-2H-1-benzopyran-4-yl]methanamine]
100 to 1000 | CNC[C@@H]1CCOc2c(-c3ccncc3OC)cccc21 [Compound 12, (R)-1-(8-(3-methoxypyridin-4-yl)chroman-4-yl)-N-methylmethanamine]
0.1 to 1 | Cc1ccc(-c2cccc3c2OCC[C@H]3CN)cn1 [Compound 13, (R)-(8-(6-methylpyridin-3-yl)chroman-4-yl)methanamine]
1 to 10 | CNC[C@@H]1CCOc2c(-c3ccc(C)nc3)cccc21 [Compound 14, (R)—N-methyl-1-(8-(6-methylpyridin-3-yl)chroman-4-yl)methanamine]
1 to 10 | Cc1cc(-c2cccc3c2OCC[C@@H]3CN)ccn1 [Compound 15, (S)-(8-(2-methylpyridin-4-yl)chroman-4-yl)methanamine]
10 to 100 | CNC[C@H]1CCOc2c(-c3ccnc(C)c3)cccc21 [Compound 16, (S)—N-methyl-1-(8-(2-methylpyridin-4-yl)chroman-4-yl)methanamine]
1 to 10 | Cc1cc(-c2cccc3c2OCC[C@H]3CN)ccn1 [Compound 17, (R)-(8-(2-methylpyridin-4-yl)chroman-4-yl)methanamine]
1 to 10 | CNC[C@@H]1CCOc2c(-c3ccnc(C)c3)cccc21 [Compound 18, (R)—N-methyl-1-(8-(2-methylpyridin-4-yl)chroman-4-yl)methanamine]
1 to 10 | Cc1cc(-c2cccc3c2OCC[C@H]3CN)c(C)cn1 [Compound 19, (R)-(8-(2,5-dimethylpyridin-4-yl)chroman-4-yl)methanamine]
1 to 10 | Cc1cnccc1-c1cccc2c1OCC[C@H]2CN [Compound 20, (R)-(8-(3-methylpyridin-4-yl)chroman-4-yl)methanamine]
10 to 100 | CNC[C@@H]1CCOc2c(-c3ccncc3C)cccc21 [Compound 21, methyl({[(4R)-8-(3-methylpyridin-4-yl)-3,4-dihydro-2H-1-benzopyran-4-yl]methyl})amine]
0.1 to 1 | NC[C@@H]1CCOc2c(-c3cccnc3)cccc21 [Compound 22]
10 to 100 | NC[C@H]1CCOc2c(-c3cccnc3)cccc21 [Compound 24]
10 to 100 | CNC[C@H]1CCOc2c(-c3cccnc3)cccc21 [Compound 25]
10 to 100 | Cc1ncc(-c2cccc3c2OCC[C@H]3CN)cn1 [Compound 26]
10 to 100 | Cc1ncccc1-c1cccc2c1OCC[C@H]2CN [Compound 27]
10 to 100 | CNC[C@@H]1CCOc2c(-c3cccnc3C)cccc21 [Compound 28]
1 to 10 | Cc1cc(C)c(-c2cccc3c2OCC[C@H]3CN)cn1 [Compound 29, 1-[(4R)-8-(4,6-dimethylpyridin-3-yl)-3,4-dihydro-2H-1-benzopyran-4-yl]methanamine]

EC50 [nM] | SMILES
10 to 100 | Cc1nccc(-c2cccc3c2OCC[C@H]3CN)c1C [Compound 30, (R)-(8-(2,3-dimethylpyridin-4-yl)chroman-4-yl)methanamine]
1 to 10 | NC[C@@H]1CCOc2c(-c3cncnc3)cccc21 [Compound 31]
1 to 10 | CNC[C@@H]1CCOc2c(-c3cncnc3)cccc21 [Compound 32]
1 to 10 | CNC[C@@H]1CCOc2c(-c3cc(C)ncc3C)cccc21 [Compound 33]
10 to 100 | NC[C@@H]1CCOc2c(-c3cnccn3)cccc21 [Compound 34]
10 to 100 | CNC[C@@H]1CCOc2c(-c3cnccn3)cccc21 [Compound 35]
1 to 10 | Cn1cncc1-c1cccc2c1OCC[C@H]2CN [Compound 36]
10 to 100 | CNC[C@@H]1CCOc2c(-c3cncn3C)cccc21 [Compound 37]
0.1 to 1 | NC[C@@H]1CCOc2c(-c3cncs3)cccc21 [Compound 38]
1 to 10 | CNC[C@@H]1CCOc2c(-c3cncs3)cccc21 [Compound 39]
1 to 10 | NC[C@@H]1CCOc2c(-c3ccnnc3)cccc21 [Compound 40]
10 to 100 | CNC[C@@H]1CCOc2c(-c3ccnnc3)cccc21 [Compound 41]
10 to 100 | CNC[C@@H]1CCOc2c(-c3ccnc(C)c3C)cccc21 [Compound 42]
100 to 1000 | CNC[C@@H]1CCOc2c(-c3cnc(C)nc3)cccc21 [Compound 43]
1 to 10 | NC[C@@H]1CCOc2c(-c3cnc[nH]3)cccc21 [Compound 44, 1-[(4R)-8-(1H-imidazol-5-yl)-3,4-dihydro-2H-1-benzopyran-4-yl]methanamine]
1 to 10 | CNC[C@@H]1CCOc2c(-c3cnc[nH]3)cccc21 [Compound 45, {[(4R)-8-(1H-imidazol-5-yl)-3,4-dihydro-2H-1-benzopyran-4-yl]methyl}(methyl)amine]
1 to 10 | CNC[C@@H]1CCOc2c(-c3cnn(C)c3C)cccc21 [Compound 48]
10 to 100 | CNC[C@@H]1CCOc2c(-c3cn(C)nc3C)cccc21 [Compound 49]
1 to 10 | CNC[C@@H]1CCOc2c(-c3cscn3)cccc21 [Compound 50]
1 to 10 | CNC[C@@H]1CCOc2c(-c3ccc(F)cc3)cccc21 [Compound 53, (R)-1-(8-(4-fluorophenyl)chroman-4-yl)-N-methylmethanamine]
1 to 10 | CNC[C@@H]1CCOc2c(-c3cnn(C)c3)cccc21 [Compound 54, (R)—N-methyl-1-(8-(1-methyl-1H-pyrazol-4-yl)chroman-4-yl)methanamine]
10 to 100 | CNC[C@@H]1CCOc2c(-c3ccn(C)n3)cccc21 [Compound 55, (R)—N-methyl-1-(8-(1-methyl-1H-pyrazol-3-yl)chroman-4-yl)methanamine]
10 to 100 | CNC[C@@H]1CCOc2c(-c3nccs3)cccc21 [Compound 56, (R)—N-methyl-1-(8-(thiazol-2-yl)chroman-4-yl)methanamine]
1 to 10 | CNC[C@@H]1CCOc2c(-c3cnsc3)cccc21 [Compound 57, (R)-1-(8-(isothiazol-4-yl)chroman-4-yl)-N-methylmethanamine]
